Where “and” joins values, the source holds several entries; their conditions need not be identical. Equal values may be shown once.
Tests used:
[1] = molecular target: GABAA channels composed of α1β2γ2 subunits (Homo sapiens, UniProt P14867+P18507+P47870); test: Modulation of IGABA, two-microelectrode voltage clamp in Xenopus laevis oocytes; assay type: cell-based; conditions: α1β2γ2, GABA EC5-10, Fig. 2
Protocol: The following paragraphs describe the preparation of oocytes expressing the specific GABAA receptor subtype composed of α1, β2 and γ2 subunits and the subsequent analysis of the concentration-response curves of the stimulation of chloride currents through GABAA receptors (IGABA).
Preparation of stage V-VI oocytes from Xenopus laevis, synthesis of capped off run-off poly(A^+) cRNA transcripts from linearized cDNA templates (pCMV vector) was performed as described (Khom et al. 2006). Briefly, female Xenopus laevis (NASCO, USA) were anaesthetised by exposing them for 15 minutes to a 0.2 % solution of MS-222 (methane sulfonate salt of 3-aminobenzoic acid ethyl ester; Sandoz) before surgically removing parts of the ovaries. Follicle membranes from isolated oocytes were enzymatically digested with 2 mg/ml collagenase (Type 1A, Sigma). One day after isolation, the oocytes were injected with about […] of DEPC- treated water (diethyl pyrocarbonate, Sigma, Germany) containing the different cRNAs (encoding for α1, β2 and γ2 subunits) at a concentration of approximately 300 - 3000 pg/µl/subunit. The amount of cRNA was determined by means of a NanoDrop ND-1000 (Kiskerbiotech, Steinfurt, Germany).
Oocytes were stored at 18°C in ND96 solution (Methfessel et al., 1986). […]
Stimulation of chloride currents by modulators of the GABAA receptor was measured at a GABA concentration eliciting between 5 and 10 % of the maximal current amplitude (EC5-10). The EC5-10 was determined at the beginning of each experiment.
Enhancement of the chloride current was defined as (I(GABA+Comp)/IGABA) - 1, where I(GABA+Comp) is the current response in the presence of a given compound (piperine or piperin derivatives) and IGABA is the control GABA current. […] Statistical significance was calculated using paired Student t-test with a confidence interval of p < 0.05 (Khom et al., 2007). […]

Male mice (C57BI/6N) [2] = test: Elevated Plus Maze test (EPM); assay type: in vivo; conditions: for total distance travelled in the EPM: compared to control
Protocol: (§1) Piperine was isolated from Piper nigrum as described by Zaugg et al. (2010) and obtained from SigmaAldrich (Vienna, Austria), respectively. Piperine derivatives were synthesized as described above. Stock solutions (1mg/10 µl) were prepared in DMSO (Dimethyl Sulfoxide, Sigma, Austria).Working concentrations were adjusted by dilution with 0.9% sodiumchloride. pH was adjusted to 7.2-7.4 with NaOH. For better solubility 3% of Tween80 was added to all solutions. All solutions were freshly prepared every day prior to experiments. Care was taken for equal amounts of DMSO in the actein and control solutions.
(§2) Male mice (C57BI/6N) were obtained from Charles River Laboratories (Germany). For breeding and maintenance mice were group housed with free access to food and water. Temperature was fixed to 23±1 °C and 60% humidity with a 12 h light-dark cycle (lights on 0700-1900 hours). Male mice at 3-6 months age were tested in all experiments. Every effort was taken to minimize the number of animals used (Khom et al., 2010).
The animals's behavior was tested over 5 min on an elevated plus maze 1 m above ground consisting of two closed and two open arms, each 50x5 cm in size (Khom et al., 2010). The test instrument was built from gray PVC; the height of closed arm walls was 20 cm. Illumination was set to 180 lux. Animals were placed in the center, facing an open arm. Analysis of open and closed arm entries and time on open arm was automatically done with Video-Mot 2 equipment and software (Khom et al., 2010).

PTZ-induced seizures = test: Seizure threshold by PTZ tail-vein infusion; assay type: in vivo, mice; conditions: for effects on seizure threshold: PTZ 30 min after i.p. injection; for seizure threshold: 30 min after i.p. injection
Protocol: as §1, §2
Seizure threshold was determined by PTZ tail-vein infusion on freely moving animals at a rate of 100 µl/min ([…] PTZ in saline, pH 7.4). […] Animals were immediately killed by cervical displacement after the first generalized seizure. The seizure threshold dose was calculated from the infused volume in relation to body weight (Loacker et al. 2007). Piperine and piperine derivatives were applied at doses from 0.1 to 30 mg/kg 30 min before PTZ infusion. Control animals were pretreated with 10 % DMSO in saline containing 3 % Tween 80 (i. e. the solvent for all piperine doses).

[3] = molecular target: human TRPV1 receptor (hTRPV1) (Homo sapiens, UniProt Q8NER1); test: Activation of cation current through TRPV1 expressed in Xenopus oocytes; assay type: cell-based; conditions: 300 µM applied to oocytes, Fig. 4
human TRPV1 receptor (hTRPV1), sequence (Q8NER1 whole entry): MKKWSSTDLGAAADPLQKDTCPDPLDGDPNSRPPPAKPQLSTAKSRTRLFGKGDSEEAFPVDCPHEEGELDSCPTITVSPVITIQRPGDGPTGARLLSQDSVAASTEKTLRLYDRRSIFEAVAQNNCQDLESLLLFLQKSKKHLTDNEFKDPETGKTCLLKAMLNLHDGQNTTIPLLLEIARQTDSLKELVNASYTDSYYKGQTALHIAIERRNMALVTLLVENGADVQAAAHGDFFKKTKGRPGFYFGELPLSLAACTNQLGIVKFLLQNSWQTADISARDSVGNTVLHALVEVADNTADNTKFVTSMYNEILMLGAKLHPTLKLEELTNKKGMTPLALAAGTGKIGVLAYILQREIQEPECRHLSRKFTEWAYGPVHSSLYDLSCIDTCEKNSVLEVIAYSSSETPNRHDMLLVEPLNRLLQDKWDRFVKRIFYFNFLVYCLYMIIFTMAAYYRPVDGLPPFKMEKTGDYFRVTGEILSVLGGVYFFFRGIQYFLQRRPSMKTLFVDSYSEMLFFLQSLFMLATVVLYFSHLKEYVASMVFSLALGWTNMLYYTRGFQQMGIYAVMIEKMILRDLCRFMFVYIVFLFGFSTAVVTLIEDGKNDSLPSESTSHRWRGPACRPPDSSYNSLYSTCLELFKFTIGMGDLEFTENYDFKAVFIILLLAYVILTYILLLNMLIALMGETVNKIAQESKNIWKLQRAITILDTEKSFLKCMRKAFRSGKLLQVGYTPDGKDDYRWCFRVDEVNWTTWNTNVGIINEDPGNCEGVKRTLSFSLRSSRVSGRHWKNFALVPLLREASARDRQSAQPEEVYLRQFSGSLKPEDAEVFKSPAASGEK
Protocol: cRNA encoding for the human TRPV1 receptor (hTRPV1) was injected into Xenopus oocytes as previously described (Hu et al. 2004).

Male mice (C57BI/6N) [4] = test: Open Field test (OF); assay type: in vivo; conditions: 30 mg/kg bodyweight; for effect on total ambulation / total distance: 30 min after i.p. injection, Fig. 11B
Protocol: as §1, §2
Ambulation was tested over 10 min in a 50x50 cm flexfield box equipped with infrared rearing detection. Illumination was set to 150 lux. Animals were video monitored and their explorative behavior was analyzed using the Actimot 2 equipment and software (TSE-systems, Bad Homburg, Germany). Arenas were subdivided into border (up to 8 cm from wall), center (20x20 cm, i.e. 16% of total area), and intermediate area according to the recommendations of EMPRESS (European Mouse Phenotyping Resource of Standardised Screens; http://empress.har.mrc.ac.uk).

GABAA channels composed of α1β2γ2 subunits, sequence (P14867 28-456): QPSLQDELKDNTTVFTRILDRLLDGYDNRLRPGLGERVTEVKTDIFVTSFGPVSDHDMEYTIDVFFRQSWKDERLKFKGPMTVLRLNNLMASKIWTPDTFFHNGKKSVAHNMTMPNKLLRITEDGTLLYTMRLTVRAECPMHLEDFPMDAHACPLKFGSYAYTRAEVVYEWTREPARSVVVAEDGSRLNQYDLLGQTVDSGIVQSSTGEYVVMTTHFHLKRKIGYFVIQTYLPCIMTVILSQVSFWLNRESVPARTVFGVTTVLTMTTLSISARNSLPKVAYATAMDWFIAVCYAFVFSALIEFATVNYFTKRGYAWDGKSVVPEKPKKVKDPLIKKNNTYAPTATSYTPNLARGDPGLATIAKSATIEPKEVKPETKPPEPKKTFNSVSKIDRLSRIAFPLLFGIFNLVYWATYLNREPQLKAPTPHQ
GABAA channels composed of α1β2γ2 subunits, sequence (P47870 25-512 limits assumed): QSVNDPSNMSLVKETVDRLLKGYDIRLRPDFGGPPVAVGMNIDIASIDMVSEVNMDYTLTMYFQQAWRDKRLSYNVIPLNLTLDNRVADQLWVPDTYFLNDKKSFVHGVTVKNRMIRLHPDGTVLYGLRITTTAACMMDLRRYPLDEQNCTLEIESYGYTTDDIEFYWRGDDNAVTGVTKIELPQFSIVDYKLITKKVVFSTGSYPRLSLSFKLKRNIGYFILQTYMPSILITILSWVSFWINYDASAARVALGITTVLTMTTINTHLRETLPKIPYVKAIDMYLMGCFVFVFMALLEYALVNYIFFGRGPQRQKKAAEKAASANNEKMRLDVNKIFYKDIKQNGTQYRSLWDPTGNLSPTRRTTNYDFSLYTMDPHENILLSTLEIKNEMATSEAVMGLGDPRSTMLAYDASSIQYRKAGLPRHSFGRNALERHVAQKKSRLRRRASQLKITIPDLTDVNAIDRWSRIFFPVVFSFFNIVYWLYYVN
GABAA channels composed of α1β2γ2 subunits, sequence (P18507 40-475): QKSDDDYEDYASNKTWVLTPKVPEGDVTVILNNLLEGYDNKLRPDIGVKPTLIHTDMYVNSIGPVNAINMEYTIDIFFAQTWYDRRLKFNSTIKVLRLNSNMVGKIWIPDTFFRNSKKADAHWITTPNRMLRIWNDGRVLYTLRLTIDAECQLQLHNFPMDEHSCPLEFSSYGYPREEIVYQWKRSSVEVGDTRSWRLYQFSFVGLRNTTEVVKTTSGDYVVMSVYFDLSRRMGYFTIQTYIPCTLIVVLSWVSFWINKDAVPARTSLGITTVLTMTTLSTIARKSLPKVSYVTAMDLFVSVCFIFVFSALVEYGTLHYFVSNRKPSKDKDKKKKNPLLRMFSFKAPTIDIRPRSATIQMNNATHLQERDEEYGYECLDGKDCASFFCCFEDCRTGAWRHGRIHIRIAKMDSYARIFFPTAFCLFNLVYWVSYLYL

Row | Structure (SMILES) | modulation of IGABA [1] | time spent on the open arms (OA) in % of the total time (Male mice (C57BI/6N) [2]; 0.3 mg/kg bodyweight, i.p.) | effects on seizure threshold (PTZ-induced seizures; Fig. 12) | cation current through TRPV1 receptors [3] | effect on total ambulation / total distance (Male mice (C57BI/6N) [4]) | further results
1 | CCCCN(CCCC)C(=O)/C=C/C=C/c1ccc2c(c1)OCO2 [SCT-29] | positive allosteric modulatory effect by enhancing IGABA | not statistically significant | particularly active at low concentrations | no current was induced | no effect on ambulation | cation current through TRPV1 receptors ([3]; listed as SCT29): none of the derivatives SCT29, SCT64 or SCT66 induced cation currents
2 | CC(C)N(C(=O)/C=C/C=C/c1ccc2c(c1)OCO2)C(C)C [SCT-46] |  |  |  | no current was induced |  | 
3 | CCN(CC)C(=O)/C=C/C=C/c1ccc2c(c1)OCO2 [SCT-54] |  |  | particularly active at low concentrations |  | no effect on ambulation | 
4 | CCCN(CCC)C(=O)/C=C/C=C/c1ccc2c(c1)OCO2 [SCT-64] | positive allosteric modulatory effect by enhancing IGABA | 41.6 ± 3.2% and 44.2 ± 3.3% | particularly active at low concentrations | no current was induced | reduced the total distance | time spent on the open arms (OA) in % of the total time (Male mice (C57BI/6N) [2]; 10 mg/kg bodyweight, i.p.): 59.6 ± 4.9%; total distance travelled in the EPM (Male mice (C57BI/6N) [2]; i.p.): reducing slightly the total ambulation at doses ≥1 mg/kg bodyweight; cation current through TRPV1 receptors ([3]; listed as SCT64): none of the derivatives SCT29, SCT64 or SCT66 induced cation currents
5 | CC(C)CN(CC(C)C)C(=O)/C=C/C=C/c1ccc2c(c1)OCO2 [SCT-66] | positive allosteric modulatory effect by enhancing IGABA | 40.8 ± 3.2% and 38.1 ± 5.1% |  | no current was induced | reduced the total distance | time spent on the open arms (OA) in % of the total time (Male mice (C57BI/6N) [2]; 3 mg/kg bodyweight, i.p.): 46.5 ± 6.6%; total distance travelled in the EPM (Male mice (C57BI/6N) [2]; i.p.): no significant effect on ambulation; minimal effective dose (PTZ-induced seizures; Mus musculus, ip, 0.5 h, i.p., Fig. 12, read-out: doses of first significant effects on seizure threshold): ≥ 10 mg/kg; cation current through TRPV1 receptors ([3]; listed as SCT66): none of the derivatives SCT29, SCT64 or SCT66 induced cation currents
6 | CCCCN(CCCC)C(=O)/C=C/C=C/c1cc(OC)c(OC)c(OC)c1 [SCT-68] |  |  |  | no current was induced |  | 
7 | O=C(/C=C/C=C/c1ccc2c(c1)OCO2)N1CCCCC1 [piperine, Piperine] |  | 42.7 ± 4.4% |  |  |  | time spent on the open arms (OA) in % of the total time (Male mice (C57BI/6N) [2]; 0.1 mg/kg bodyweight, 30 min after i.p. injection): no significant effect; time spent on the open arms (OA) in % of the total time (Male mice (C57BI/6N) [2]; 1 mg/kg bodyweight, i.p.): 45.6 ± 6.6%; seizure threshold (PTZ-induced seizures; 3 mg/kg): 46.2 ± 5.44; seizure threshold (PTZ-induced seizures; 10 mg/kg): 48.7 ± 2.13; seizure threshold (PTZ-induced seizures; 30 mg/kg): 30.3 ± 3.43; reduction of ambulation compared to control littermates (Male mice (C57BI/6N) [4]; i.p.): more than 50%; traveled distance (total ambulation) (Male mice (C57BI/6N) [4]; i.p.): 16.5 ±3.8 m

Reference: patent publication EP2519511B1, “NOVEL PIPERINE DERIVATIVES AS GABA-A RECEPTORS MODULATORS” (Universität Wien, priority 2009, dated 2011)
